In patent publication US20260028364A1, “CATIONIC CHROMENONES AND THEIR USE IN ONCOLOGY” (FLORATEK PHARMA S.A., priority 2022, published 2026):

Key:
Format in all cases: cell-based
[1] = test system: K562; experiment: CellTiter-Glo cell viability, K562; conditions: Homo sapiens; K562 cells, 72 h with compound
Method: (§1) Antitumor activity against a panel of cancer cell lines Antitumor activity of the compounds was assessed by using the CellTiter-Glow® Luminescent Cell Viability assay (Promega #G7572) according to the manufacturer's instructions. The compounds were tested at 5 or 6 concentrations in 1:2 dilution increments (highest concentration 10 µM) in triplicate well conditions.
(§2) Tumor cells were grown at 37° C. in a humidified atmosphere with 5% CO2 in RPMI 1640 or DMEM medium, supplemented with 10% (v/v) fetal calf serum and 50 μg/ml gentamicin for up to 20 passages, and were passaged once or twice weekly. Cells were harvested using TrypLE or PBS buffer containing 1 mM EDTA, and the percentage of viable cells is determined using a cell counter.
(§3) Cells were harvested from exponential phase cultures, counted and plated in 96 well flat-bottom microtiter plates at a cell density depending on the cell line's growth rate (4,000-20,000 cells/well depending on the cell line's growth rate) in RPMI 1640 or DMEM medium supplemented with 10% (v/v) fetal calf serum and 50 μg/ml gentamicin (140 μl/well). Cultures were incubated at 37° C. and 5% CO2 in a humidified atmosphere. […] Viability of cells was quantified by the CellTiter-Glow® Luminescent Cell Viability assay (Promega #G7572). Luminescence was measured with the microplate luminometer (En Vision Perkin Elmer). […]

[2] = test system: MOLT-4; experiment: CellTiter-Glo cell viability, MOLT-4; conditions: Homo sapiens; MOLT-4 cells, 72 h with compound
Method: as §1, §2, §3

[3] = test system: NCI-H1299; experiment: CellTiter-Glo cell viability, NCI-H1299; conditions: Homo sapiens, NCI-H1299; H1299 cells, 72 h with compound
Method: as §1, §2
Cells were harvested from exponential phase cultures, counted and plated in 96 well flat-bottom microtiter plates at a cell density depending on the cell line's growth rate (4,000-20,000 cells/well depending on the cell line's growth rate) in RPMI 1640 or DMEM medium supplemented with 10% (v/v) fetal calf serum and 50 μg/ml gentamicin (140 μl/well). Cultures were incubated at 37° C. and 5% CO2 in a humidified atmosphere. After 24 h, 10 μl of test compounds or control medium are added, and left on the cells for another 72 h. Compounds were serially diluted in DMSO, transferred in cell culture medium, and added to the assay plates. The DMSO concentration was kept constant at <0.2% v/v across the assay plate. Viability of cells was quantified by the CellTiter-Glow® Luminescent Cell Viability assay (Promega #G7572). Luminescence was measured with the microplate luminometer (En Vision Perkin Elmer).
Sigmoidal concentration-response curves were fitted to the data points (test-versus-control, T/C values) obtained for each tumor model using Graph Pad prism 5.02 software. IC50 values are reported as absolute IC50 values, being the concentration of test compound at the intersection of the concentration-response curves with T/C=50%.

[4] = test system: A2058; experiment: Caspase-Glo 3/7 apoptosis assay, A2058; conditions: A2058 cells, 10 μM, 24 h
Method: Apoptosis activity was evaluated using Caspase-Glo 3/7 Assay kit (Promega-G8091) according to the manufacturer's instructions. Cells were grown as above and harvested from exponential phase cultures, counted and plated in 96 black well flat-bottom microtiter plates at a cell density depending on the cell line's growth rate (3,000-10,000 cells/well depending on the cell line's growth rate). Following an overnight incubation, compounds were added to the cell plates at various concentrations (highest at […]) with the DMSO concentration maintained at 0.1% for a 24 h period treatment. 100 μL of Caspase-Glo 3/7 Reagent was added to each well of 96-well plate containing 100 μL culture medium, and after 30 min at room temperature, luminescence was measured with the microplate luminometer (EnVision Perkin Elmer). The induced relative Caspase 3/7 activity of the tested compounds was determined by the following formula: Relative Caspase 3/7 activity (fold increase)=(RLU compound−RLU blank)/(RLU control−RLU blank).

[5] = test system: JAK/STAT; experiment: SelectScreen CellSensor pathway inhibition, JAK/STAT; conditions: Homo sapiens; ISRE-bla Jurkat, stimulus IFN-alpha
Method: (§4) Inhibition of various cellular pathways known to be involved in malignancy was tested using the SelectScreen Cell-based Pathway Profiling GeneBLAzer™ cell signaling pathway specific CellSensor™ cell lines ((Thermo Fisher). The assay is based on a beta-lactamase reporter activity which is modulated and can be measured quantitatively and selectively with the LiveBLAzer™-FRET B/G Loading Substrate. SelectScreen Cell-Based Pathway Profiling Service uses XLfit from IDBS. The dose response curve is curve fit to model number 205 (sigmoidal dose-response model). Custom logic was built by Thermo Fisher for the data analysis tool to address the different compound characteristics that can be observed with functional assays.
JAK/STAT—ISRE-bla HEK 293T—Inhibitor Screen, Activated by IFN-Alpha
ISRE-bla HEK 293T cells are thawed and resuspended in Assay Media (OPTI-MEM, 0.5% dialyzed FBS, 0.1 mM NEAA, 1 mM Sodium Pyruvate, 100 U/mL/[…] Pen/Strep) to a concentration of 625,000 cells/mL. 32 μL of cell suspension is added to each well of a 384-well TC-Treated assay plate. Cells in Assay Media are incubated for 16-24 hours in the plate at 37° C./5% CO2 in a humidified incubator. […] 4 μL of 10× control activator IFN-alpha at the pre-determined EC80 concentration is added to wells containing the control inhibitor or compounds. […] The plate is read on a fluorescence plate reader.

[6] = test system: NFKB; experiment: SelectScreen CellSensor pathway inhibition, NFKB; conditions: Homo sapiens; NFKB-bla Jurkat, stimulus TNF-alpha
Method: as §4
NFKB—NFKB-bla Jurkat—Inhibitor Screen, Activated by TNF-Alpha
NFKB-bla Jurkat cells are thawed and resuspended in Assay Media (DMEM, 10% dialyzed FBS, 25 mM HEPES pH 7.3, 0.1 mM NEAA, 100 U/mL/100 μg/mL Pen/Strep) to a concentration of 625,000 cells/mL. […] 4 μL of 10×control activator TNF-alpha at the pre-determined EC80 concentration is added to wells containing the control inhibitor or compounds.
The plate is incubated for 5 hours at 37° C./5% CO2 in a humidified incubator. […] The plate is read on a fluorescence plate reader.

`COc1ccc2c(=O)c(-c3ccc(CCCC[P+](c4ccccc4)(c4ccccc4)c4ccccc4)cc3)coc2c1OC.[Br-]` [SND470, (4-(4-(7,8-Dimethoxy-4-oxo-4H-chromen-3-yl)phenyl)butyl)triphenylphosphonium bromide] gave an IC50 [1] of 14 nM, an IC50 [2] of 400 nM and an IC50 [3] of 40 nM. For the same molecule, the “Fold activation of Caspase 3/7” value [4] was 3.87 Fold, the IC50 [5] was 360 nM and the IC50 [6] was 1530 nM.
